Measured values: patent publication US20100041892A1, “Therapeutic agent for diabetes” (priority 2005, published 2010)
Where two headings read alike, the source gives them in different places.

Experiments:
PPARγ-RXRα heterodimer = molecular target: T1, PPARγ-RXRα heterodimer (Homo sapiens, UniProt P37231); experiment: PPARγ-RXRα heterodimer ligand activity (luciferase reporter, PPARγ:RXRα:4ERPP/CHO-K1 cells); format: cell-based; details: concentration showing 50% of the maximum luciferase induction rate; CHO-K1 reporter cells, one day incubation
T1 construct: expressed in transfected cells; host or cells: CHO-K1 (PPARγ:RXRα:4ERPP/CHO-K1)
T1 sequence (P37231 1-477 isoform P37231-2): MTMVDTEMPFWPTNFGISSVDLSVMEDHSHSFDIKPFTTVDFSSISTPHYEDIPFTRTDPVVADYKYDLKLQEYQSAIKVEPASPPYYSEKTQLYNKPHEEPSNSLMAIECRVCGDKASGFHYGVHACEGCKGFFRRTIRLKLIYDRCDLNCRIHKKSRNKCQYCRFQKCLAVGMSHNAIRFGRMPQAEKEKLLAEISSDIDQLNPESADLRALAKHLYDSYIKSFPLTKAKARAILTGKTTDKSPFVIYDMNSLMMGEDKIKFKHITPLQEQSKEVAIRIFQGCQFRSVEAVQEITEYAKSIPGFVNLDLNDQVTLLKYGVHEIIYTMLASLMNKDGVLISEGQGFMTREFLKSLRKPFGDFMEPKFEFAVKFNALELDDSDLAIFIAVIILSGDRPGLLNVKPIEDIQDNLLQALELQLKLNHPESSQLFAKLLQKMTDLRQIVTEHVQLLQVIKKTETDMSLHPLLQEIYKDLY
T1 sequence (P19793 1-462 partner): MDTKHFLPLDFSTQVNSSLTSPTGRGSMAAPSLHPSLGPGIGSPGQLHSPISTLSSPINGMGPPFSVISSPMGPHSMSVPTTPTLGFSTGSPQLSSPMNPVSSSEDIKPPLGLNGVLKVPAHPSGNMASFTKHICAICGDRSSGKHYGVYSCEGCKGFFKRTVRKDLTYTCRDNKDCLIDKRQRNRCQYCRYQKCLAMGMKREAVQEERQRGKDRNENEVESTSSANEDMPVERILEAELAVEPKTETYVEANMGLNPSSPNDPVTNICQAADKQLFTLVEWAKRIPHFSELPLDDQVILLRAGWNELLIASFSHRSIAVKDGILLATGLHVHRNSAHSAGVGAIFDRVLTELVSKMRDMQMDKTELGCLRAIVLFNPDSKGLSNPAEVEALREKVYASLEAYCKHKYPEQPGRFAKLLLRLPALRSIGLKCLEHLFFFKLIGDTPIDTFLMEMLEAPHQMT
Outline: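 CHO-K1 cells expressing PPARγ:RXRα with a 4ERPP reporter were exposed to compound for one day at 37° C in Ham F12 containing 0.1% fatty acid-free BSA, then read for luciferase. Induction rate was taken relative to untreated cells as 1, and EC50 is the concentration giving 50% of maximal induction.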

KKAy mice = experiment: Blood glucose and blood lipid (triglyceride) lowering action in mice; format: in vivo; details: Mus musculus, 4TO7, po, 0.01% in powder diet, 4 to 7 days
Outline: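 KKAy mice (9 to 14-week-old, 5 per group) fed compound in powder diet at 0.01% (some at 0.03% or 0.005%) ad libitum for 4 to 7 days. Orbital plexus blood drawn; plasma glucose and triglyceride quantitated by enzyme method.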

[1] = plasma glucose relative to non-administration group = 100%, read-out: hypoglycemic action (%)
[2] = plasma triglyceride relative to non-administration group = 100%, read-out: hypolipidemic action (%)

Row | SMILES | EC50 (PPARγ-RXRα heterodimer) [nM] | melting point [°C] | response vs control in vivo at 0.01 % (KKAy mice; [1]) [%] | response vs control in vivo at 0.01 % (KKAy mice; [2]) [%]
1 | CCCCCS(=O)(=O)NC(=O)/C=C/c1ccc(OC(COCC)COCC)cc1Oc1ncc(C(F)(F)F)cc1Cl [Example 198, (2E)-3-{2-{[3-chloro-5-(trifluoromethyl)pyridin-2-yl]oxy}-4-[2-ethoxy-1-(ethoxymethyl)ethoxy]phenyl}-N-(pentylsulfonyl)acrylamide] | 7.8 | 83 to 85.5 | 62 | 84
2 | COCCOc1ccc(CCCOC(=O)NS(=O)(=O)NCCc2ccccn2)c(Oc2ncc(C(F)(F)F)cc2Cl)c1 [Example 208, 3-[2-{[3-chloro-5-(trifluoromethyl)pyridin-2-yl]oxy}-4-(2-methoxyethoxy)phenyl]propyl {[(2-pyridin-2-ylethyl)amino]sulfonyl}carbamate] | 4 | 91 to 93 | 70 | 71
3 | COCCOc1ccc(CCCOC(=O)NS(=O)(=O)NCCOC(C)C)c(Oc2ncc(Cl)cc2Cl)c1 [Example 429, 3-[2-[(3,5-dichloropyridin-2-yl)oxy]-4-(2-methoxyethoxy)phenyl]propyl {[(2-isopropoxyethyl)amino]sulfonyl}carbamate] | 3.8 | 87.5 to 88.4 | 51 | 60
4 | COCCOc1ccc(/C=C/COC(=O)NS(=O)(=O)N2CCCC2)c(Oc2ncc(C(F)(F)F)cc2Cl)c1 [Example 437, (2E)-3-[2-{[3-chloro-5-(trifluoromethyl)pyridin-2-yl]oxy}-4-(2-methoxyethoxy)phenyl]prop-2-en-1-yl (pyrrolidin-1-ylsulfonyl)carbamate] | 54 | 123 to 124 | 45 | 58

Now those with a lower EC50 (PPARγ-RXRα heterodimer), led by results:

Row | EC50 (PPARγ-RXRα heterodimer) [nM] | melting point [°C] | SMILES | response vs control in vivo at 0.01 % (KKAy mice; [1]) [%] | response vs control in vivo at 0.01 % (KKAy mice; [2]) [%]
5 | 3.1 | 121.5 to 121.8 | COCCOc1ccc(CCCOC(=O)NS(=O)(=O)NC2CCC(C)CC2)c(Oc2ncc(C(F)(F)F)cc2Cl)c1 (stereo not shown) [Example 205, 3-[2-{[3-chloro-5-(trifluoromethyl)pyridin-2-yl]oxy}-4-(2-methoxyethoxy)phenyl]propyl {[(4-methylcyclohexyl)amino]sulfonyl}carbamate] | 54 | 50
6 | 0.99 | 117.5 to 118 | COCCOc1ccc(CCCOC(=O)NS(=O)(=O)NCCc2cccs2)c(Oc2ncc(C(F)(F)F)cc2Cl)c1 [Example 207, 3-[2-{[3-chloro-5-(trifluoromethyl)pyridin-2-yl]oxy}-4-(2-methoxyethoxy)phenyl]propyl ({[2-(2-thienyl)ethyl]amino}sulfonyl)carbamate] | 54 | 43
7 | 0.95 | 68 to 69.2 | CCOCC(COCC)Oc1ccc(CCCOC(=O)NS(=O)(=O)NCCOC(C)C)c(Oc2ncc(C(F)(F)F)cc2Cl)c1 [Example 430, 3-{2-{[3-chloro-5-(trifluoromethyl)pyridin-2-yl]oxy}-4-[2-ethoxy-1-(ethoxymethyl)ethoxy]phenyl}propyl {[(2-isopropoxyethyl)amino]sulfonyl}carbamate] | 45 | 34
